The data set can be described thus: solubility test of organometallic complexes in various solvents. The conditions noted are these: for solubility x in anisole: solvent having aromatic ring: anisole; for solubility x in toluene: solvent having aromatic ring: toluene; for solubility x in 2-ethoxyethanol / solubility x in ethanol / solubility x in isopropanol / solubility x in methanol / solubility x in diethyl ether: solvent not having aromatic ring; for solubility x in 2-ethoxyethanol: alcohol: 2-ethoxyethanol; for solubility x in ethanol: alcohol: ethanol; for solubility x in isopropanol: alcohol: isopropanol; for solubility x in methanol: alcohol: methanol. Format: physicochemical. The protocol:
In Example 1, the solubility of an organometallic complex having a pyrazine skeleton as described in Embodiment Mode 1 was evaluated. The evaluation was performed by examining the solubility in various solvents. For the solvent, toluene and anisole were each used as a solvent having an aromatic ring. Further, diethyl ether which is ether, and 2-ethoxyethanol, isopropanol, ethanol, and methanol which are alcohols were each used as a solvent not having an aromatic ring.
In addition, the solubility of btp2Ir(acac) (a structural formula (101) given below), which is disclosed in Nonpatent Document 1 was evaluated as a comparative sample A. In addition, the solubility of Ir(ppy)2(acac) (a structural formula (102) given below) was evaluated as a comparative sample B.

The results in this text go back to patent US20080233432A1, “Composition, Method for Fabricating Light-Emitting Element, Light-Emitting Element, Light-Emitting Device, and Electronic Device” (Semiconductor Energy Laboratory Co., Ltd., priority 2007, published 2008).

SMILES strings stand for the structures.

As for `CC(=O)C=C(C)[O-].[Ir+3].[c-]1ccccc1-c1nccnc1-c1ccccc1.[c-]1ccccc1-c1nccnc1-c1ccccc1` [Sample 1], the “solubility x in anisole” value was “⊚ (a double circle in the case of x≧1.2)”, the “solubility x in toluene” value is recorded as “◯ (a circle in the case of 1.2>x≧0.9)”, the “solubility x in 2-ethoxyethanol” value is listed as “X (a cross in the case of x<0.6)” and the “solubility x in ethanol” value is reported as “X (a cross in the case of x<0.6)”. Besides, the “solubility x in isopropanol” value is listed as “X (a cross in the case of x<0.6)”, the “solubility x in methanol” value is listed as “X (a cross in the case of x<0.6)” and the “solubility x in diethyl ether” value was “X (a cross in the case of x<0.6)”.
On to `CC(=O)C=C(C)[O-].Fc1c[c-]c(-c2nccnc2-c2ccc(F)cc2)cc1.Fc1c[c-]c(-c2nccnc2-c2ccc(F)cc2)cc1.[Ir+3]` [Sample 2], for which the “solubility x in anisole” value is reported as “⊚ (a double circle in the case of x≧1.2)”, the “solubility x in toluene” value was “◯ (a circle in the case of 1.2>x≧0.9)”, the “solubility x in 2-ethoxyethanol” value is “X (a cross in the case of x<0.6)” and the “solubility x in ethanol” value is listed as “X (a cross in the case of x<0.6)”. For the same molecule, the “solubility x in isopropanol” value is “X (a cross in the case of x<0.6)”, the “solubility x in methanol” value is “X (a cross in the case of x<0.6)” and the “solubility x in diethyl ether” value is on record as “X (a cross in the case of x<0.6)”.
With `CC(=O)C=C(C)[O-].Cc1cnc(-c2[c-]cc(F)cc2)c(-c2ccc(F)cc2)n1.Cc1cnc(-c2[c-]cc(F)cc2)c(-c2ccc(F)cc2)n1.[Ir+3]` [Sample 4], the “solubility x in anisole” value is on record as “⊚ (a double circle in the case of x≧1.2)”, the “solubility x in toluene” value is listed as “⊚ (a double circle in the case of x≧1.2)”, the “solubility x in 2-ethoxyethanol” value is “⊚ (a double circle in the case of x≧1.2)” and the “solubility x in ethanol” value was “X (a cross in the case of x<0.6)”. The “solubility x in isopropanol” value was “X (a cross in the case of x<0.6)”, the “solubility x in methanol” value is “X (a cross in the case of x<0.6)” and the “solubility x in diethyl ether” value is “⊚ (a double circle in the case of x≧1.2)”.
`Cc1cnc(-c2[c-]cc(F)cc2)c(-c2ccc(F)cc2)n1.Cc1cnc(-c2[c-]cc(F)cc2)c(-c2ccc(F)cc2)n1.O=C([O-])c1ccccn1.[Ir+3]` [Sample 5]: the “solubility x in anisole” value is listed as “⊚ (a double circle in the case of x≧1.2)”, the “solubility x in toluene” value is listed as “⊚ (a double circle in the case of x≧1.2)”, the “solubility x in 2-ethoxyethanol” value is reported as “⊚ (a double circle in the case of x≧1.2)” and the “solubility x in ethanol” value is “⊚ (a double circle in the case of x≧1.2)”. The “solubility x in isopropanol” value is recorded as “⊚ (a double circle in the case of x≧1.2)”, the “solubility x in methanol” value is given as “X (a cross in the case of x<0.6)” and the “solubility x in diethyl ether” value is “X (a cross in the case of x<0.6)”.
As for `CC(C)c1cnc(-c2[c-]cc(F)cc2)c(-c2ccc(F)cc2)n1.CC(C)c1cnc(-c2[c-]cc(F)cc2)c(-c2ccc(F)cc2)n1.O=C([O-])c1ccccn1.[Ir+3]` [Sample 7], the “solubility x in anisole” value is listed as “⊚ (a double circle in the case of x≧1.2)”, the “solubility x in toluene” value was “⊚ (a double circle in the case of x≧1.2)”, the “solubility x in 2-ethoxyethanol” value was “⊚ (a double circle in the case of x≧1.2)” and the “solubility x in ethanol” value is listed as “X (a cross in the case of x<0.6)”. Further, the “solubility x in isopropanol” value is “X (a cross in the case of x<0.6)”, the “solubility x in methanol” value is on record as “X (a cross in the case of x<0.6)” and the “solubility x in diethyl ether” value is “X (a cross in the case of x<0.6)”.
For `CC(=O)C=C(C)[O-].Cc1nc(C(C)C)cnc1-c1[c-]cccc1.Cc1nc(C(C)C)cnc1-c1[c-]cccc1.[Ir+3]` [Sample 9], the “solubility x in anisole” value is on record as “⊚ (a double circle in the case of x≧1.2)”, the “solubility x in toluene” value is recorded as “⊚ (a double circle in the case of x≧1.2)”, the “solubility x in 2-ethoxyethanol” value is “⊚ (a double circle in the case of x≧1.2)” and the “solubility x in ethanol” value is “Δ (a triangle in the case of 0.9>x≧0.6)”. For the same molecule, the “solubility x in isopropanol” value was “Δ (a triangle in the case of 0.9>x≧0.6)”, the “solubility x in methanol” value is reported as “X (a cross in the case of x<0.6)” and the “solubility x in diethyl ether” value is on record as “⊚ (a double circle in the case of x≧1.2)”.
Regarding `CC(=O)C=C(C)[O][Ir]([c]1ccccc1-c1ncc(-c2ccccc2)nc1-c1ccccc1)[c]1ccccc1-c1ncc(-c2ccccc2)nc1-c1ccccc1` [Sample 10, (acetylacetonato)bis(2,3,5-triphenylpyrazinato)iridium(III)], the “solubility x in anisole” value was “⊚ (a double circle in the case of x≧1.2)”, the “solubility x in toluene” value is “⊚ (a double circle in the case of x≧1.2)”, the “solubility x in 2-ethoxyethanol” value is recorded as “⊚ (a double circle in the case of x≧1.2)” and the “solubility x in ethanol” value is “X (a cross in the case of x<0.6)”. Further, the “solubility x in isopropanol” value was “X (a cross in the case of x<0.6)”, the “solubility x in methanol” value was “X (a cross in the case of x<0.6)” and the “solubility x in diethyl ether” value is reported as “⊚ (a double circle in the case of x≧1.2)”.
